# Results published in US10590413B2, “Chiral control” (WAVE LIFE SCIENCES LTD., priority 2012, dated 2020).
# Like-named read-outs stand apart in the source and are kept apart here. Strand notation (5' to 3'): a small letter for the sugar, then the base; units joined by * are phosphorothioate-linked, units joined directly phosphodiester-linked; [ ] holds rarer units or linkages, { } end groups; capitals alone tell only the bases. d = 2'-deoxy (DNA)
# How the values were obtained:
# [1] = system: Mouse Apolipoprotein B/GAPDH mRNA; assay: Apolipoprotein B mRNA assay in transfected mouse primary hepatocytes (Example 88); format: cell-based
# Experimental: C57BL6 male mice, 7 weeks of age were used to extract and plate mouse primary hepatocytes in 96-well plates (without overlay) (Celsis/Bioreclamation IVT). Transfection of primary hepatocytes was carried out with lipofectin (Life Technologies, cat. No. 18292-037) using the manufacturer's protocol, using 0.5 ul of Lipofectin per 96-plate well. Twelve, 1:3 siRNA duplex dilutions were created starting at 6 uM. 10 ul of 10× oligo was then lipoplexed with a prepared mixture of 9.5 ul of In vitro Gro HI Medium (Celsis Cat. Z99009) serum-free medium and 0.5 ul of Lipofectin per well. After a 10-15 minute incubation, 20 ul of lipoplexed oligo was added to primary hepatocytes in 80 ul of In vitro Gro HI Medium to bring the final volume to 100 ul per well. 24 hours after transfection, cells were lysed.
# Total mRNA was purified from cell lysates using MagMAX™-96 Total RNA Isolation Kit (Life Technologies, AM1830); 15 ul of cDNA was synthesized with High Capacity cDNA Reverse Transcription Kit with RNase Inhibitor (Life Technologies, 4374967). Gene expression was evaluated by Real-Time PCR on a Lightcycler 480 (Roche) using a Probes Master Mix (Roche, 04 707 494 001) according to manufacturer's protocol using the following primers: Mouse apolipoprotein B primers:
# [Template: (GenBank Accession Number M35186)]
# The delta delta Ct method was used to calculate values. […]
# NK LU = conditions: PBMC, phosphorothioate ODN, cited from earlier work
# [2] = system: TNF-α and IL-12 expression; conditions: cell line 3774, no activator, inhibitor at head concentration: Bafilomycin 250 nM, Chloroquine 2.5 μg/ml, Monensin 10 μM, cited from earlier work; for TNF-α, activator: Medium (inhibitor alone): NAC 50 mM, TPCK 50 μM, Gliotoxin 0.1 μg/ml, Bisgliotoxin 0.1 μg/ml, medium alone 37; for IL-12, activator: Medium (inhibitor alone): medium alone 147
# [3] = system: CpG-induced cytokine secretion; conditions: RALB/c spleen cells, 24 hr, ELISA, cited from earlier work; for IL-12 secretion: 2 × 10^7 cells/ml, indicated ODN alone; for CpG-S-induced IL-12 secretion: IL-12 secretion induced by addition of CpG ODN 1619 at 30 μg/ml
# Murine IL-6 secretion = conditions: cited from earlier work
# [4] = system: ODN-induced cytokine expression; conditions: ELISA on supernatants from DBA/2 spleen cells, 2 × 10^7 cells/ml, 24 hr, ODN at 30 μg/ml; cited from earlier work
# CD86 = conditions: US 6,218,371 Table 3; cited from earlier work
# CD40 = conditions: US 6,218,371 Table 3; cited from earlier work
# T cell proliferation = conditions: US 6,218,371 Table 3; cited from earlier work
# NK Lytic Activity = conditions: cited from earlier work
# [5] = system: human B cell proliferation; conditions: human spleen cells or PBNC, ODN at 6 μml, 4-7 days, 3H thymidine, cited from earlier work
# B cell proliferation = B cell proliferation induced by a stimulatory CpG motif; oligonucleotide added alone or with inhibitory ODN 1735; cited from earlier work
# (Ap)9A = conditions: duplex with (Ap)9A; cited from earlier work
# [6] = expt. 1 (one donor), US 6,214,806 Table 5
# [7] = expt. 1, cells alone 0.00, US 6,239,116 Table 11
# [8] = T cell depleted spleen cells from DBA/2 mice, phosphodiester O-ODN 20 μM, 24 hr, mean ± SD of triplicates
compound,measurement,setting,value
(All(Rp))-GsTs5mCs5mCs5mCsTsGsAsAsGsAsTsGsTs5mCsAsAsTsGs5mC (DNA GTCCCTGAAGATGTCAATGC; chemistry not fully specified) [ONT-82],IC50,"[1]; relative IC50, bottom 0 and top 100 constrained, read-out: IC50 for Suppression of Mouse Apolipoprotein B/GAPDH mRNA Levels",64.4 nM
same,Hill Slope,"[1]; suppression of ApoB/GAPDH mRNA, bottom 0 and top 100 constrained",−0.3
1990 (DNA dT*dC*dC*dA*dT*dG*dC*dG*dT*dG*dC*dG*dT*dG*dC*dG*dT*dT*dT*dT) [Oligonucleotide 1990],"NK LU, expt. 1",NK LU; [6],2.10 LU
same,"NK LU, expt. 1",NK LU; [7],2.10 LU
1991 (DNA dT*dC*dC*dA*dT*dG*dC*dG*dT*dT*dG*dC*dG*dT*dT*dG*dC*dG*dT*dT) [Oligonucleotide 1991],"NK LU, expt. 1",NK LU; [6],0.89 LU
same,"NK LU, expt. 1",NK LU; [7],0.89 LU
CN1C(=O)[C@]23CC4=CC=C[C@H](O)[C@H]4N2C(=O)[C@@]1(CO)SS3 [Gliotoxin],"TNF-α, activator: Medium (inhibitor alone)",[2],17 pg/mL
CC(=O)N[C@@H](CS)C(=O)O [NAC],"TNF-α, activator: Medium (inhibitor alone)",[2],10 pg/mL
1895 (DNA GCGCGCGCGCGCGCGCGCGC; chemistry not given here) [Oligonucleotide 1895],IL-12 secretion,[3],123 pg/mL
same,CpG-S-induced IL-12 secretion,[3],2719 pg/mL
5b (DNA ATGGAAGGTCCAACGTTCTC; chemistry not given here) [Oligonucleotide 5b],IL-6,Murine IL-6 secretion; [8],1124.5 ± 126.2 pg/mL
same,IL-6,Murine IL-6 secretion; murine IL-6 secretion,1124.5 ± 126.2 pg/mL
Cc1ccc(S(=O)(=O)N[C@@H](Cc2ccccc2)C(=O)CCl)cc1 [TPCK],"TNF-α, activator: Medium (inhibitor alone)",[2],24 pg/mL
1952 (DNA TCCATGTCGTTCCGCGCGCG; chemistry not given here) [Oligonucleotide 1952],ODN-induced cytokine expression IFN-γ,[4],2135 pg/mL
same,ODN-induced cytokine expression IL-6,[4],559 pg/mL
same,ODN-induced cytokine expression IL-12,[4],1615 pg/mL
5c (DNA ATCGACTCTCGAGCGTTCTC; chemistry not fully specified) [Oligonucleotide 5c],IL-6,Murine IL-6 secretion; [8],1783.0 ± 189.5 pg/mL
same,IL-6,Murine IL-6 secretion; murine IL-6 secretion,1783.0 ± 189.5 pg/mL
GM-CSF,CD86 (5 Exp),CD86,1.9
same,CD40 (4 Exp.),CD40,2.5
same,T cell proliferation,T cell proliferation,13.3
CC[C@@]1([C@@H]2O[C@@H]([C@H]3O[C@@](O)(CO)[C@H](C)C[C@@H]3C)C[C@@H]2C)CC[C@H]([C@]2(C)CC[C@]3(C[C@H](O)[C@@H](C)[C@@H]([C@@H](C)[C@@H](OC)[C@H](C)C(=O)O)O3)O2)O1 [Monensin],"TNF-α, activator: Medium (inhibitor alone)",[2],22 pg/mL
same,"IL-12, activator: Medium (inhibitor alone)",[2],73 pg/mL
5d (DNA ATGGAAGGTCCAGTGTTCTC; chemistry not given here) [Oligonucleotide 5d],IL-6,Murine IL-6 secretion; [8],≤10 pg/mL
same,IL-6,Murine IL-6 secretion; murine IL-6 secretion,≤10 pg/mL
1841 (DNA TCCATAGCGTTCCTAGCGTT; chemistry not given here) [Oligonucleotide 1841],NK Lytic Activity (LU),"NK Lytic Activity; human PBMC cultured with ODN 6 μg/ml for 24 hr, lysis of 51Cr-labeled K562 cells",1.45 LU
same,LU (NK lytic activity),"NK Lytic Activity; human PBMC, ODN 6 μg/ml for 24 hr, lysis of Cr-labeled K562 cells, cells alone 0.01",1.45 LU
same,"Stimulation Index, expt. 1","[5]; US 6,214,806 Table 6",3
same,"Stimulation Index, expt. 1","[5]; US 6,239,116 Table 12",3
"CCN(CC)CCCC(C)Nc1ccnc2cc(Cl)ccc12 (stereo not shown) [Chloroquine, chloroquine, reference compound]","TNF-α, activator: Medium (inhibitor alone)",[2],27 pg/mL
same,"IL-12, activator: Medium (inhibitor alone)",[2],20 pg/mL
2037 (DNA TCCATGCCGTTCCTGCCGTT; chemistry not given here) [Oligonucleotide 2037],IL-12 secretion,[3],423 pg/mL
same,CpG-S-induced IL-12 secretion,[3],2847 pg/mL
"19792 (DNA TCCATGTCGTTCCTGTCGTT; phosphorothioate, Z modified cytosine, chemistry not fully specified) [Oligonucleotide 19792]","NK LU, expt. 1",NK LU; [6],1.32 LU
"1720 (DNA 1720 (TCCATGAGCTTCCTGATGCT); as printed in the source, key not given here) [Oligonucleotide 1720]",cpm (B cell proliferation),B cell proliferation,601 cpm
1966 (DNA dT*dC*dG*dT*dC*dG*dC*dT*dG*dT*dC*dT*dC*dC*dG*dC*dT*dT*dC*dT*dT) [Oligonucleotide 1966],"NK LU, expt. 1",NK LU; [6],2.62 LU
same,"NK LU, expt. 1",NK LU; [7],2.62 LU
(Rp)-(Ups)9U,Tm value of duplex compared with natural-(Up)9U/(Ap)9A,(Ap)9A,higher Tm value
"1963 (DNA TCCTTGTCGTTCCTGTCGTT; DNA, all phosphorothioate, methylation of C not given here) [Oligonucleotide 1963]","NK LU, expt. 1",NK LU; [6],3.42 LU
same,"NK LU, expt. 1",NK LU; [7],3.42 LU
same,"Stimulation Index, expt. 1","[5]; US 6,214,806 Table 6",3
same,"Stimulation Index, expt. 1","[5]; US 6,239,116 Table 12",3
1953 (DNA TCCATGTCGTTCCTGCCGCT; chemistry not given here) [Oligonucleotide 1953],ODN-induced cytokine expression IFN-γ,[4],2000 pg/mL
same,ODN-induced cytokine expression IL-6,[4],557 pg/mL
same,ODN-induced cytokine expression IL-12,[4],1854 pg/mL
1896 (DNA CCGGCCGGCCGGCCGGCCGG; chemistry not given here) [Oligonucleotide 1896],IL-12 secretion,[3],292 pg/mL
same,CpG-S-induced IL-12 secretion,[3],2740 pg/mL
"C[Si](C)(C)C[C@@H](O)[C@@H]1CCCN1 [Compound 5a, (S)-2-(Trimethylsilyl)-1-((S)-1-pyrrolidin-2-yl)ethanol]",IL-6,Murine IL-6 secretion; [8],1096.4 ± 372.0 pg/mL
same,IL-6,Murine IL-6 secretion; murine IL-6 secretion,1096.4 ± 372.0 pg/mL
(Sp)-(Ups)9U,Tm value of duplex compared with natural-(Up)9U/(Ap)9A,(Ap)9A,did not form a duplex
"5e (DNA ATCGACTCTCGAGCCTTCTC; Z modified cytosine, further chemistry not given here) [Oligonucleotide 5e]",IL-6,Murine IL-6 secretion; [8],851.1 ± 114.4 pg/mL
same,IL-6,Murine IL-6 secretion; murine IL-6 secretion,851.1 ± 114.4 pg/mL
Bafilomycin,"TNF-α, activator: Medium (inhibitor alone)",[2],46 pg/mL
same,"IL-12, activator: Medium (inhibitor alone)",[2],102 pg/mL
"5f (DNA ATCGACTCTCGAGCGTTCTC; Z-modified nucleotides, chemistry not fully specified) [Oligonucleotide 5f]",IL-6,Murine IL-6 secretion; [8],≤10 pg/mL
same,IL-6,Murine IL-6 secretion; murine IL-6 secretion,≤10 pg/mL
1959 (DNA GCGGCGGGCGGCGCGCGCCC; chemistry not given here) [Oligonucleotide 1959],IL-12 secretion,[3],270 pg/mL
same,CpG-S-induced IL-12 secretion,[3],2539 pg/mL
